# “Also recorded” adds a separate entry of the source.
# Key:
# [1] = target: T1, F342W/I416W hLRH-1 (Homo sapiens, UniProt O00482, F342W/I416W); assay: RT-qPCR of CYP24A1 in HepG2 cells stably expressing the hLRH-1 pocket mutant; type: cell-based; conditions: 10 μM, 16 h, low levels of hLRH-1; listed as PME8
# T1 construct: expressed in transfected cells; host or cells: TET-On 3G HepG2 cells; Dox-inducible pTRE 3G vector (Clontech)
# Procedure: Cell lines and Quantitative Real-time Polymerase Chain Reaction (RT-qPCR) Assay. […] Induction of low or high levels of hLRH-1 was achieved by addition of DMSO or 500 ng/ml Dox, respectively.
# For RT-qPCR assay, cells (5×10^5) were plated on 24-well plates in 0.5 mL of media. The following day, fresh media was applied with compound or DMSO control. After an overnight treatment or indicated period of time, cells were washed with ice-cold 1×PBS and total RNA was isolated by Trizol (Life Technologies). DNase-treated total RNA was used to generate cDNA using High-Capacity cDNA Reverse Transcription kits (Life Technologies). RT-qPCR was performed with SYBR (Biotool) and data analyzed essentially as described [19].
# [2] = target: biotinylated apo hLRH-1 LBD (Homo sapiens, UniProt O00482); assay: Surface plasmon resonance binding assay; conditions: SPR, 25° C., titration from 300 μM, 1:1 binding model; listed as PME8
# Chain of biotinylated apo hLRH-1 LBD (O00482 300-539 limits assumed): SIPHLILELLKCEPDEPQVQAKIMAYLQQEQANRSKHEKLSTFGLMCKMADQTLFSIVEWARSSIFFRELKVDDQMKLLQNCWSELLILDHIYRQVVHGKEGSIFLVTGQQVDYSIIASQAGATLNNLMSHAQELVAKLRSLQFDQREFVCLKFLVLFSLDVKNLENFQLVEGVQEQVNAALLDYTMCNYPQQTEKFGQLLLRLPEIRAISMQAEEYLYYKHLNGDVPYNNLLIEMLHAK
# Procedure: Surface Plasmon Resonance Assays. Data were collected on a BiaCore T100 instrument. The biotin CAPture kit (GE Healthcare Life Science) was used as directed for chip preparation and immobilization of protein. In brief, the CAP chip was first conditioned with 3×1 min injec-tions of the provided regeneration solution (6 M Guanidine HCL, 0.25 M NaOH). CAP reagent was then captured on flow cells 1 and 2 to a final density of ˜2500 response units using capture buffer (25 mM HEPES, pH 7.4, 150 mM NaCl). Avi-tagged LRH-1 was then directly injected exclusively on to flow cell 2 achieving a final density of ˜1000 response units (capture buffer). […] A titration series for each fragment was generated as a 0.6× dilution series starting from 300 μM. All samples were made to match the running buffer used in the experiment as closely as possible (capture buffer+3% DMSO, +0.05% Tween-20, 250 μM TCEP). Data was collected at 25° C. with a flow rate of 30 μL/min. Data processing included referencing to both the reference flow cell as well as a buffer injection. Equilibrium binding constants were determined by nonlinear regression analysis utilizing a simple 1:1 binding model. Steady state values used to generate dose-responses curve correspond to the response units achieved 20 seconds after injection.
# [3] = target: T2, hLRH-1 (Homo sapiens, UniProt O00482); assay: RT-qPCR of hLRH-1 target gene CYP24A1 in HepG2 / HepG2-hLRH-1 cells; type: cell-based
# T2 construct: expressed in transfected cells; host or cells: TET-On 3G HepG2 cells; Dox-inducible pTRE 3G vector (Clontech)
# T2 sequence (O00482 whole entry): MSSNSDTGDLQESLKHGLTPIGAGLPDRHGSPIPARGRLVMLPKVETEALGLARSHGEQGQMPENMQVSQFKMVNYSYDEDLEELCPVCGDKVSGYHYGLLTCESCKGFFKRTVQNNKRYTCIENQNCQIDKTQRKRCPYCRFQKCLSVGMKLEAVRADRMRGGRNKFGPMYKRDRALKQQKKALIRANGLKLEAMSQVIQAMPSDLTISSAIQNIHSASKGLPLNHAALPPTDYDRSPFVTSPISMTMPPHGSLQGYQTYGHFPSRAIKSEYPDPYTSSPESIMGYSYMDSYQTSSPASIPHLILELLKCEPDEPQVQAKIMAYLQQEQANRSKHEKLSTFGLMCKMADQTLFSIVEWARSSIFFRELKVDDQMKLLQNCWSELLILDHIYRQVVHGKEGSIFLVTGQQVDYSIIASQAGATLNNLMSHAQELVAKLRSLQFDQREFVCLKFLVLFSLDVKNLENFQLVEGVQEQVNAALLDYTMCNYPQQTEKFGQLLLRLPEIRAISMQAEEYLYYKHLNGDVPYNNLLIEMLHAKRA
# [4] = test system: TBP; assay: RT-qPCR of housekeeping gene TBP in HepG2-hLRH-1 cells; type: cell-based, human; conditions: high hLRH-1 (+Dox), 16 h, SR1848 10 μM
# Procedure: FIG. 9. Effects of select compounds targeting hLRH-1 compared to PME8. Agonists and antagonists were tested in HepG2-hLRH-1 cells expressing high levels (+Dox) of hLRH-1; activating compounds were added for 16 h relative to the DMSO control (black bars) at the following concentrations: RJW100 (10 μM), DLPC (20 μM), PME8 (10 μM) (bolded, this study) as well as the two putative antagonist/repressors, SR1848 (10 μM) and Cpd3 (10 μM); relative levels of the hLRH-1 target, CYP24A1 (left set of bars) and the housekeeping gene, TBP (right set of bars) are shown with all values normalized to GAPDH. Error bars represents SEM and P values=****<0.0001.
# Finally, to ask how PME8 and PME9 compare to other published compounds, we directly compared the activity of all compounds with respect to the ability to activate or repress CYP24A1 expression in HepG2-hLRH-1 cells. For this experiment, assays were carried out under high levels of hLRH-1 (+Dox) to maximize our ability to see any repressive effects of compounds and the ligand concentrations used were based on published effective doses. […] Of the two published antagonist/repressors, only SR1848 decreased CYP24A1 levels. […]
# For RT-qPCR assay, cells (5×10^5) were plated on 24-well plates in 0.5 mL of media. […] RT-qPCR was performed with SYBR (Biotool) and data analyzed essentially as described. […]
# T1 sequence (O00482 whole entry F342W/I416W): as the sequence (O00482 whole entry) above, with F342W, I416W counted along it
Compound,activity (CYP24A1 transcripts) in cells expressing the pocket mutant versus wild type hLRH-1 [1],binding to the hLRH-1 LBD [2],"CYP24A1 expression after siRNA-mediated knockdown of hLRH-1 (dependence on hLRH-1) ([3]; 10 μM, siLRH-1 vs siControl, HepG2-hLRH-1 cells, low hLRH-1 (−Dox), listed as PME8)",treatment time of maximal activity (CYP24A1 levels) ([3]; HepG2-hLRH-1 cells) [h],"time and dose dependence of CYP24A1 induction ([3]; HepG2-hLRH-1 cells, 3-24 h at 10 μM, increasing concentrations for 16 h, −Dox or +Dox, listed as PME8)",expression of the housekeeping gene TBP [4],"CYP24A1 expression, comparison of published compounds ([3]; high hLRH-1 (+Dox), 16 h, RJW100 10 μM, DLPC 20 μM, SR1848 10 μM)"
"CCCNC(=O)c1cc(C(C)(C)C)cc(C(C)(C)C)c1O [Compound 8, 3,5-di-tert-butyl-2-hydroxy-N-propylbenzamide]",decreased; also recorded: depends on an intact hLRH-1 ligand binding pocket,direct binding; also recorded: bind directly,precipitous drop in CYP24A1 expression; also recorded: Depends on hLRH-1,16,time-dependent (FIG. 7A) and dose-dependent,,
"O=c1cc(N2CCN(c3cccc(Cl)c3)CC2)[nH]c(=O)n1C1CCCCC1 [SR1848, reference compound]",,,,,,substantial repression,decreased
